The values that follow are results of earlier work, collected in patent publication US9585959B2, “Robust controlled-release formulations” (CAMURUS AB, priority 2011, dated 2017).

*1 amine or outer side, *2 acyl side, *3 side chain or, on linkers, in order; H or OH if unused. Where a SMILES comes first, the peptide text is derived from it. Side-chain parts run from the residue outwards. [ ]: non-standard residue; d: D form. The star is where a group is joined. Ethylenediamine = C(CN[*:2])N[*:1]; Hyp = O=C(O)[C@@H]1C[C@@H](O)CN1; Phg = N[C@H](C(=O)O)c1ccccc1; CO = O=C([*:1])[*:2]; Bn = c1ccc(C*)cc1

In data set [1] the test system is SSTRs (SSTR1-SSTR5).
Data set [2] deals with somatostatin receptor subtypes sstr1,2,3 and sstr5.
For data set [3] the following is noted: in vivo.

As to `C[C@@H](O)[C@@H]1NC(=O)[C@H](CCCCN)NC(=O)[C@@H](Cc2c[nH]c3ccccc23)NC(=O)[C@H](Cc2ccccc2)NC(=O)[C@@H](NC(=O)[C@H](N)Cc2ccccc2)CSSC[C@@H](C(=O)N[C@H](CO)[C@@H](C)O)NC1=O` [Octreotide, D-Phe-Cys-Phe-D-Trp-Lys-Thr-Cys-Thr-ol (2-7 disulphide bridge)], the Selectivity result in data set [1] (for SSTR2 and SSTR5) is “high selectivity”.

Turning to `NCCCC[C@@H]1NC(=O)[C@@H](Cc2c[nH]c3ccccc23)NC(=O)[C@H](c2ccccc2)NC(=O)[C@@H]2C[C@@H](OC(=O)NCCN)CN2C(=O)[C@H](Cc2ccccc2)NC(=O)[C@H](Cc2ccc(OCc3ccccc3)cc2)NC1=O` [Pasireotide] (cyclo(F[Hyp]([CO-Ethylenediamine])[Phg][dW]KY(Bn))), the Affinity entry in data set [2] is listed as “high affinity”. For “Ala-Gly-Cys-Lys-Asn-Phe-Phe-Trp-Lys-Thr-Phe-Thr-Ser-Cys [SST-14]”, in data set [3], the Biological half-life was 1-3 minutes. Besides, the “Affinity of the five SSTRs” value in data set [1] (SSTR1-SSTR5) is recorded as “equally high affinity”.
